In patent publication US9242981B2, “Fused pyrazole derivatives as novel ERK inhibitors” (Merck Sharp & Dohme Corp., priority 2010, dated 2016):

How the values were obtained:
ERK protein = ERK protein (Mus musculus, UniProt P63085); experiment: TdF (Temperature Dependence Fluorescence, thermal shift) assay for ERK; assay type: binding; conditions: Table 2; 3 μM ERK protein
Text: The SAR (Structure Activity Relationship) for ERK ligands covered by this invention was interrogated using the TdF (Temperature Dependence Fluorescence) assay or best known as thermal shift assay. (M. W. Pantoliano, et al., “High-density miniaturized thermal shift assays as a general strategy for drug discovery,” J. Biomol. Screen 6 (2001) 429-440) The TdF assay was mainly conducted in the 96-well based CHROMO-4 real time fluorescence plate reader (BioRad). The Sypro Orange (Sigma-Aldrich), environmentally sensitive fluorescence dye, was used to monitor the protein folding-unfolding transition. Protein-ligand binding was gauged by the change (or shift) in the unfolding transition temperature (ΔTm) acquired at protein alone with respect to protein in the presence of ligand of interest.
Compound of interest was first prepared in DMSO stock (typical concentration: 10 mM). […] Final percentage of DMSO resided in the sample was 2%. The sample plate was heated from 30° C. to 90° C. with thermal ramping rate of 1° C./min. The fluorescence signals were acquired with excitation and emission wavelengths centered at 490 and 560 nm respectively. The instrument thermal stability was ±0.2° C. The melting temperatures (Tm) for ERK protein under aforementioned conditions occurred at […] and 64.8±0.2° C. respectively.
The derivation of TdF-based ligand binding affinity constant (Kd) followed closely those previously formulated by Brandts and Lin. (J. F. Brandts, L.-N. Lin, “Study of strong to ultratight protein interactions using differential scanning calorimetry,” Biochemistry 29 (1990) 6927-6940). In brief, the binding constant of the ligand at the Tm is expressed as below:
[formula] where T0 is the midpoint of unfolding for unliganded protein and Tm is the midpoint of unfolding in presence of ligand. [LTm] is free ligand at Tm. The ΔHu and ΔCpu are the enthalpy of unfolding and heat capacity change of unfolding for the protein respectively. Following algorithm derived by Winsor and coworker, the T0, ΔHu and ΔCpu can be determined separately from nonlinear regression fitting the protein alone melting curve:
[formula] where F(T) is the observed fluorescence intensity at any temperature T, Yn, and Yu are the predicted fluorescence intensities for fully folded and unfolded protein, respectively; mn and mu are slope correction for changes in Yn and Yu with respect to changes in temperature (analogously replace T0 with Tm in the above equation for liganded protein to yield Tm). (Mayhood, T. W., Windsor, W. T., “Ligand binding affinity determined by temperature-dependent circular dichroism: Cyclin-dependent kinase 2 inhibitors,” Analytical Biochemistry 345 (2005) 187-197).
[formula] where ΔHL (T) is the van't Hoff enthalpy of ligand binding at temperature T and ΔCpL is the heat capacity upon ligand binding. For simplicity, the ΔCpL and ΔHL (T) were set to zero and -7 kcal/mol respectively. […]

Mouse ERK2 protein = Mouse ERK2 protein (Mus musculus (Mouse), UniProt P63085); experiment: Coupled MEK1/ERK2 IMAP assay or Active ERK2 IMAP assay; assay type: biochemical
[1] = Table 1, class symbols, 30 μM ATP

Sequence of ERK protein (P63085 2-358 limits assumed): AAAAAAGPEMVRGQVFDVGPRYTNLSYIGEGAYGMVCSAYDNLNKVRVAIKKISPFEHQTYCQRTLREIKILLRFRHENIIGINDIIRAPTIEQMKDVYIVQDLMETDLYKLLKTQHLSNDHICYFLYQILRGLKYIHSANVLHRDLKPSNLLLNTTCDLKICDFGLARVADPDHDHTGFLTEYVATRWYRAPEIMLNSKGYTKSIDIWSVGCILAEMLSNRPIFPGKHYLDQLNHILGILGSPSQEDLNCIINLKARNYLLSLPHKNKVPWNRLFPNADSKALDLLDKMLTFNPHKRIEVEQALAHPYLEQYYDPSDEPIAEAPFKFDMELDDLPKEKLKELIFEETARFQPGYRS
Sequence of Mouse ERK2 protein (P63085 whole entry): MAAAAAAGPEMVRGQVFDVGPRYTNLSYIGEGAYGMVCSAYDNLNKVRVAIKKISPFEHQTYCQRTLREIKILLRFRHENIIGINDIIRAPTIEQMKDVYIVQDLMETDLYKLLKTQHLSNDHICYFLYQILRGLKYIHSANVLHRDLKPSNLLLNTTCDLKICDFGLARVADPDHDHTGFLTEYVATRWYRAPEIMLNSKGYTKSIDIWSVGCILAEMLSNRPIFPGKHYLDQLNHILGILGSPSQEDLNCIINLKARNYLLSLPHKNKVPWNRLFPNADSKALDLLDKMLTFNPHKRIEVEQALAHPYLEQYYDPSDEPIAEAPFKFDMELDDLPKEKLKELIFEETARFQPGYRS

Kd (ERK protein) [nM] | IC50 (Mouse ERK2 protein; Table 2, 30 μM ATP) [nM] | IC50 (Mouse ERK2 protein; [1]) [nM] | Structure (SMILES)
 |  | 21 to 100 | Cc1nc2ccc(-c3n[nH]c4c3CN(C(=O)N[C@@H]3CCCN(Cc5ccccc5)C3)CC4)cc2o1 [Compound 185, 1,4,6,7-tetrahydro-3-(2-methyl-6-benzoxazolyl)-N-[1-(phenylmethyl)-3(R)-piperidinyl]-5H-pyrazolo[4,3-c]pyridine-5-carboxamide]
 |  | 21 to 100 | COc1cccc(F)c1CN1CCC[C@@H](NC(=O)N2CCc3[nH]nc(-c4ccc5sc(C)nc5c4)c3C2)C1 [Compound 186, (R)-N-(1-(2-fluoro-6-methoxybenzyl)piperidin-3-yl)-3-(2-methylbenzo[d]thiazol-5-yl)-6,7-dihydro-1H-pyrazolo[4,3-c]pyridine-5(4H)-carboxamide]
 |  | 101 to 1000 | Cc1nc2ccc(-c3n[nH]c4c3CN(C(=O)N[C@@H]3CCCN(Cc5c(F)cccc5F)C3)CC4)cc2o1 [Compound 187, N-[1-[(2,6-difluorophenyl)methyl]-3(R)-piperidinyl]-1,4,6,7-tetrahydro-3-(2-methyl-6-benzoxazolyl)-5H-pyrazolo[4,3-c]pyridine-5-carboxamide]
 |  | 101 to 1000 | Cc1nc2cc(-c3n[nH]c4c3CN(C(=O)N[C@@H]3CCCN(Cc5c(F)cccc5F)C3)CC4)ccc2s1 [Compound 188, N-[1-[(2,6-difluorophenyl)methyl]-3(R)-piperidinyl]-1,4,6,7-tetrahydro-3-(2-methyl-5-benzothiazolyl)-5H-pyrazolo[4,3-c]pyridine-5-carboxamide]
 |  | < 20 | Cc1nc2ccc(-c3n[nH]c4c3CN(C(=O)N[C@@H]3CCCN(Cc5csc6ccccc56)C3)CC4)cc2o1 [Compound 189, N-[1-(benzo[b]thien-3-ylmethyl)-3(R)-piperidinyl]-1,4,6,7-tetrahydro-3-(2-methyl-6-benzoxazolyl)-5H-pyrazolo[4,3-c]pyridine-5-carboxamide]
 |  | 101 to 1000 | Cc1nc2cc(-c3n[nH]c4c3CN(C(=O)N[C@@H]3CCCN(Cc5ccccc5)C3)CC4)ccc2s1 [Compound 190, 1,4,6,7-tetrahydro-3-(2-methyl-5-benzothiazolyl)-N-[1-(phenylmethyl)-3(R)-piperidinyl]-5H-pyrazolo[4,3-c]pyridine-5-carboxamide]
 |  | < 20 | Cc1nc2ccc(-c3n[nH]c4c3CN(C(=O)N[C@@H]3CCCN(Cc5ccccc5F)C3)CC4)cc2o1 [Compound 191, N-[1-[(2-fluorophenyl)-methyl]-3(R)-piperidinyl]-1,4,6,7-tetrahydro-3-(2-methyl-6-benzoxazolyl)-5H-pyrazolo[4,3-c]pyridine-5-carboxamide]

The remaining lines, values behind:

Structure (SMILES) | Kd (ERK protein) [nM] | IC50 (Mouse ERK2 protein; Table 2, 30 μM ATP) [nM] | IC50 (Mouse ERK2 protein; [1]) [nM]
Cc1ccccc1[C@@H]1CN(C)C[C@H]1NC(=O)N1CCc2[nH]nc(-c3ccncc3)c2C1 [Compound 46, 1,4,6,7-tetrahydro-N-[1-methyl-4(R)-(2-methylphenyl)-3(S)-pyrrolidinyl]-3-(4-pyridinyl)-5H-pyrazolo[4,3-c]pyridine-5-carboxamide] | 0.7 | 0.89 | 
O=C(N[C@@H]1CCCN(Cc2ccccc2F)C1)N1CCc2[nH]nc(-c3ccncc3)c2C1 [Compound 48, N-[1-[(2-fluorophenyl)methyl]-3(R)-piperidinyl]-1,4,6,7-tetrahydro-3-(4-pyridinyl)-5H-pyrazolo[4,3-c]pyridine-5-carboxamide] | 0.37 | 0.65 | 
COc1cccc(F)c1CN1CCC[C@@H](NC(=O)N2CCc3[nH]nc(-c4ccncc4)c3C2)C1 [Compound 53, N-[1-[(2-fluoro-6-methoxyphenyl)methyl]-3(R)-piperidinyl]-1,4,6,7-tetrahydro-3-(4-pyridinyl)-5H-pyrazolo[4,3-c]pyridine-5-carboxamide] | 0.15 | 3.8 | < 20
O=C(N[C@@H]1CCCN(Cc2c(F)cccc2F)C1)N1CCc2[nH]nc(-c3ccncc3)c2C1 [Compound 54, N-[1-[(2,6-difluorophenyl)methyl]-3(R)-piperidinyl]-1,4,6,7-tetrahydro-3-(4-pyridinyl)-5H-pyrazolo[4,3-c]pyridine-5-carboxamide] | 0.51 | 1.97 | 
O=C(N[C@@H]1CCCN(Cc2csc3ccccc23)C1)N1CCc2[nH]nc(-c3ccncc3)c2C1 [Compound 57, N-[1-(benzo[b]thien-3-ylmethyl)-3(R)-piperidinyl]-1,4,6,7-tetrahydro-3-(4-pyridinyl)-5H-pyrazolo[4,3-c]pyridine-5-carboxamide] | 0.3 | 0.5 | 
Cc1ccsc1CN1CCC[C@@H](NC(=O)N2CCc3[nH]nc(-c4ccncc4)c3C2)C1 [Compound 58, 1,4,6,7-tetrahydro-N-[1-[(3-methyl-2-thienyl)methyl]-3(R)-piperidinyl]-3-(4-pyridinyl)-5H-pyrazolo[4,3-c]pyridine-5-carboxamide] | 0.25 | 1.98 | 
Cc1ccc(CN2CCC[C@@H](NC(=O)N3CCc4[nH]nc(-c5ccncc5)c4C3)C2)s1 [Compound 59, 1,4,6,7-tetrahydro-N-[1-[(5-methyl-2-thienyl)methyl]-3(R)-piperidinyl]-3-(4-pyridinyl)-5H-pyrazolo[4,3-c]pyridine-5-carboxamide] | 1.51 | 1.78 | 
Cn1cc(CN2CCC[C@@H](NC(=O)N3CCc4[nH]nc(-c5ccncc5)c4C3)C2)c2ccccc21 [Compound 60, 1,4,6,7-tetrahydro-N-[1-[(1-methyl-1H-indol-3-yl)methyl]-3(R)-piperidinyl]-3-(4-pyridinyl)-5H-pyrazolo[4,3-c]pyndine-5-carboxamide] | 1.12 | 1.24 | 
Cn1c(CN2CCC[C@@H](NC(=O)N3CCc4[nH]nc(-c5ccncc5)c4C3)C2)cc2ccccc21 [Compound 61, 1,4,6,7-tetrahydro-N-[1-[(1-methyl-1H-indol-2-yl)methyl]-3(R)-piperidinyl]-3-(4-pyridinyl)-5H-pyrazolo[4,3-c]pyridine-5-carboxamide] | 0.47 | 0.3 | 
Cc1noc(-c2ccccc2)c1CN1CCC[C@@H](NC(=O)N2CCc3[nH]nc(-c4ccncc4)c3C2)C1 [Compound 75, 1,4,6,7-tetrahydro-N-[1-[(3-methyl-5-phenyl-4-isoxazolyl)methyl]-3(R)-piperidinyl]-3-(4-pyridinyl)-5H-pyrazolo[4,3-c]pyridine-5-carboxamide] | 1.36 |  | 
Cc1onc(-c2ccccc2)c1CN1CCC[C@@H](NC(=O)N2CCc3[nH]nc(-c4ccncc4)c3C2)C1 [Compound 76, 1,4,6,7-tetrahydro-N-[1-[(5-methyl-3-phenyl-4-isoxazolyl)methyl]-3(R)-piperidinyl]-3-(4-pyridinyl)-5H-pyrazolo[4,3-c]pyridine-5-carboxamide] | 1.55 |  | 
Cc1cc(-c2n[nH]c3c2CN(C(=O)N[C@H]2CN(Cc4c(F)cccc4F)CC(F)(F)C2)CC3)ccn1 [Compound 180, N-[1-[(2,6-difluorophenyl)methyl]-5,5-difluoro-3(R)-piperidinyl]-1,4,6,7-tetrahydro-3-(2-methyl-4-pyridinyl)-5H-pyrazolo[4,3-c]pyridine-5-carboxamide] |  |  | 21 to 100
COc1cccc(F)c1CN1CCC[C@@H](NC(=O)N2CCc3[nH]nc(-c4ccc5c(c4)CCO5)c3C2)C1 [Compound 181, (R)-3-(2,3-dihydrobenzofuran-5-yl)-N-(1-(2-fluoro-6-methoxybenzyl)piperidin-3-yl)-6,7-dihydro-1H-pyrazolo[4,3-c]pyridine-5(4H)-carboxamide] |  |  | < 20
O=C(N[C@@H]1CCCN(Cc2csc3ccccc23)C1)N1CCc2[nH]nc(-c3ccc4c(c3)CCO4)c2C1 [Compound 183, N-[1-(benzo[b]thien-3-ylmethyl)-3(R)-piperidinyl]-3-(2,3-dihydro-5-benzofuranyl)-1,4,6,7-tetrahydro-5H-pyrazolo[4,3-c]pyridine-5-carboxamide] |  |  | < 20
Cc1nc2cc(-c3n[nH]c4c3CN(C(=O)N[C@@H]3CCCN(Cc5c(C)cccc5C)C3)CC4)ccc2s1 [Compound 184, N-[1-[(2,6-dimethylphenyl)methyl]-3(R)-piperidinyl]-1,4,6,7-tetrahydro-3-(2-methyl-5-benzothiazolyl)-5H-pyrazolo[4,3-c]pyridine-5-carboxamide] |  |  | 21 to 100
